Consider 46 compounds from PubChem BioAssay (NCI).

“And” between values parts separate entries of the source, which are not always exact repeats. Equal entries are not always repeated.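 Briefly, cells in 96-well plates were exposed to five compound concentrations for 48 h, and endpoints were estimated by linear interpolation. Abbreviation: GI50, concentration required for 50% inhibition of growth. TGI is the concentration that stops growth completely.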

The assay has as its system MDA-MB-468 breast. Put plainly: growth of human tumour cells (NCI), 48 h.

Consider `CCC1=C[C@@H]2CN(C1)Cc1c([nH]c3ccccc13)[C@@](C(=O)OC)(c1cc3c(cc1OC)N(C)[C@H]1[C@@](O)(C(=O)OC)[C@H](OC(C)=O)[C@]4(CC)C=CCN5CC[C@]31[C@@H]54)C2`, for which the GI50 was less than 0.01 µM and the TGI turned out to be 17 µM. On the same counts, the results for `O=C(/C=C/c1ccco1)Nc1ncc(Cc2cccc(C(F)(F)F)c2)s1` are 0.111 µM and 6.93 µM. Consider `CS(=O)(=O)O[C@H]1C(=O)N(c2cc3c4ccccc4ccc3c3ccccc23)[C@@H]1c1ccccn1`, for which the GI50 was 0.269 µM and the TGI turned out to be 5.27 µM. With `CC[C@@]1(O)C(=O)OCc2c1cc1n(c2=O)Cc2cc3c(CN(C)C)c(O)ccc3nc2-1`, the GI50 was < 0.01 µM and 0.0234 µM; the TGI is 0.0426 µM and 0.108 µM. Turning to `CN(C)c1ccc(/C=C(\C#N)c2ccccc2)cc1`, the GI50 is 0.34 µM and 0.293 µM and 0.728 µM.

Take `CCN(CC)S(=O)(=O)c1ccc(-c2nc(C(Cl)Cl)nc3cc(-c4ccc(F)cc4)nn23)cc1`: the GI50 is 1.78 µM and the TGI was found to be 6.46 µM.

For `COc1ccc(C2=NN(C=O)C(c3ccc(OS(=O)(=O)c4ccc(C)cc4)c(OC)c3)C2)cc1` (stereo unspecified), the GI50 is 1.44 µM and the TGI is 7.7 µM. Turning to `FC(F)(F)c1cc(Br)cc(-c2cc(-c3ccc4c(c3)OCCO4)[nH]n2)c1`, the GI50 was 0.345 µM and the TGI was greater than 100 µM.

`O=c1c2cccc(F)c2sc2c(NCCCNCCO)nc3ccccc3c12`: the GI50 was 1.63 µM and the TGI came out at 3.26 µM. `NS(=O)(=O)c1ccc(N=Nc2c(O)[nH]c3ccc(C(=O)NCCc4cnc[nH]4)cc23)cc1`: the GI50 was greater than 25 µM and the TGI is greater than 25 µM. `Nc1c(C(=O)c2ccc(C#CCN3CCOCC3)cc2)cnn1-c1ccc(F)cc1`: the GI50 was greater than 25 µM and the TGI was greater than 25 µM. For `COc1ccc(CN2C(=O)/C(=C\C(=O)c3ccc(OCCN4CCCC4)cc3)c3ccccc32)cc1`, the GI50 is 2.07 µM and the TGI was determined as 4.57 µM. For the compound `CC(C)n1nc(C#Cc2cccc(O)c2)c2c(N)ncnc21`, the GI50 is 3.62 µM and 2.22 µM; the TGI is 23.8 µM and 5.51 µM. `O=C(CN1CCN(CCN2C(=O)c3cccc4cccc(c34)C2=O)CC1)Nc1ccc2ncsc2c1`: the GI50 was 4.79 µM and the TGI turned out to be 22.3 µM. On the same counts, the results for `Nc1nc(=S)c2ncn(C3OC(CO)C(O)C3O)c2[nH]1` (stereo unspecified) are 0.253 µM and 1.69 µM.

With `COc1ccc(/C(=C/c2ccc3ccccc3c2)c2nn[nH]n2)cc1OC`, the GI50 is 21.5 µM and the TGI was greater than 100 µM.

Turning to `CCCCOC(=O)/C=C\C(=O)NC(N)=O`, the GI50 was 4.29 µM and the TGI came to 19.4 µM. In the case of `c1ccc(COCC[P+](c2ccccc2)(c2ccccc2)c2ccccc2)cc1`, the GI50 was 0.239 µM and the TGI came out at 1.95 µM.

As to `Cc1cc(O[C@@H]2O[C@@H](C)[C@H](O)[C@@H](O)[C@H]2O)c2c3c(c(O[C@@H]4O[C@@H](C)[C@H](O)[C@@H](O)[C@H]4O)cc2c1)C(=O)c1c(O)cccc1C3=O`, the GI50 is 24.5 µM and the TGI was greater than 30 µM. The like results for `COC1=CC(c2ccc[nH]2)=N/C1=C\c1[nH]c(C)c(C(=O)Oc2ccccc2)c1C` were, in that order, 0.368 µM and 1.94 µM. The like results for `Cc1ccc(/C=C(/C#N)n2nnc3ncccc32)cc1` were, in that order, 2.49 µM and 11.2 µM. With `Clc1ccc(C2CC(c3cccc(Nc4ccncc4)c3)=NN2c2ccccc2)cc1` (stereo unspecified), the GI50 was 1.51 µM and the TGI amounted to 3.05 µM. For the compound `CCOC(=O)Nc1ccc2nc(N3CCCCCC3)sc2c1`, the GI50 is 0.391 µM and the TGI amounted to 3.11 µM. The like results for `COc1ccc2nc3cc(Cl)ccc3c(NCCNCC(O)CO)c2c1` (stereo unspecified) were, in that order, 0.975 µM and 3.16 µM. For `CC(C)C(=O)Nc1ccc(-c2nc(-c3cccc(OCCN4CCOCC4)c3)c(-c3ccnc(Br)c3)[nH]2)cc1`, the GI50 was 1.89 µM and the TGI came to 4.04 µM. As for `CCCCCCCCCCCCNC(=O)N[C@H](C(=O)N[C@H]1/C=C/CCNC(=O)/C=C/[C@H](C)NC1=O)C(C)C`, the GI50 was 0.0531 µM and the TGI is 0.218 µM. On the same counts, the results for `NC(=O)c1cc(I)ccc1NC(=O)/C=C/c1ccccc1Cl` are 0.374 µM and 7.67 µM. The like results for `C[C@@H](Oc1ccc(Oc2cnc3ccc(Cl)cc3n2)cc1)C(=O)O` were, in that order, 39.9 µM and greater than 100 µM. On the same counts, the results for `COc1cc(N2CCN(C(C)C)CC2)ccc1Nc1nc(Nc2ccc(F)cc2C(=O)NCC(O)CO)c2cc[nH]c2n1` (stereo unspecified) are 4.46 µM and 20.5 µM.

For the compound `COc1ccc(C(C)=C(c2ccc(OCCN(C)C)cc2)c2ccc(OCCN(C)C)cc2)cc1`, the GI50 was 0.489 µM and the TGI was determined as 1.44 µM. Consider `CC(=O)OC1CC2C(C)(C)CCC[C@]2(C)C2=C1C(O)=C(C(C)C)C(=O)C2=O` (stereo partly specified), for which the GI50 is 1.56 µM and the TGI is 3.81 µM. The like results for `CCCCCCNC(=O)Oc1ccc(/C(=C(/C)c2ccc(Cl)cc2)c2ccc(OCCN3CCCC3)cc2)cc1` were, in that order, 1.66 µM and 3.17 µM. Turning to `COc1ccc(Cc2cc(OC)c(OC)c(OC)c2)cc1`, the GI50 is 0.312 µM and the TGI was greater than 100 µM. On the same counts, the results for `CCNC(=O)Oc1ccc(/C(=C(\C)c2ccc(Cl)cc2)c2ccc(OCCN(CC)CC)cc2)cc1` are 3.63 µM and 14.6 µM. As to `Cc1cc2c(C(=O)NCC#N)cccc2n1-c1nc2c(c(NCc3ccccc3)n1)CCCC2`, the GI50 was 0.206 µM and the TGI came out at 0.422 µM. `Cc1cncc(-c2nc(NCCc3c[nH]c4ccccc34)c3ncn(C(C)C)c3n2)c1`: the GI50 was 3.02 µM and the TGI was determined as 10.9 µM. On the same counts, the results for `CC(C)(C)[Si](C)(C)OC1[C@@H](O[Si](C)(C)C(C)(C)C)[C@@H](CNC(=O)NC(=O)NC(=O)CCl)O[C@H]1n1cnc2c(NC(=O)Nc3ccccc3)ncnc21` (stereo partly specified) are 3.91 µM and 10.5 µM. As to `CCN(CC)c1ccc2c(c1)Oc1nc(N)c(C#N)c(N)c1C2Sc1ccc(F)cc1` (stereo unspecified), the GI50 was 1.61 µM and the TGI was found to be 3.13 µM. The like results for `O=C(O)c1ccc(NCc2nc3ccccc3[nH]2)cc1` were, in that order, greater than 100 µM and greater than 100 µM.

In the case of `COc1ccc(C2CC(c3ccccc3)=NN2C(=O)c2cc(OC)c(OC)c(OC)c2)cc1O` (stereo unspecified), the GI50 is 0.223 µM and the TGI is 0.613 µM. The like results for `CCC(CC)c1cc(N[C@H]2CC[C@H](N)C2)n2nccc2n1` were, in that order, 0.438 µM and 2.39 µM.

With `CN1CCN(Cc2ccc(NC(=O)c3cncc(C#Cc4c(N)ncc5c(F)cccc45)c3)cc2C(F)(F)F)CC1`, the GI50 is 0.872 µM and the TGI was found to be 1.69 µM.

Turning to `COc1cc(-c2cc(-c3cccs3)c(C#N)c(N3CCOCC3)n2)cc(OC)c1OC`, the GI50 was 1.99 µM and the TGI amounted to 7.06 µM. For `Cc1ccc(S(=O)(=O)OCC(=O)Nc2ccc(C(=O)O)c(O)c2)cc1`, the GI50 is 29.1 µM and the TGI came out at 98.6 µM. The like results for `C[C@]12CCCN1CC1=NNC(=O)c3cc(F)cc4[nH]c2c1c34` were, in that order, 13.5 µM and 34.5 µM. For the compound `O=C(Nc1ccc(Oc2ccc(NC(=O)Nc3ccccc3Cl)cc2)cc1)Nc1ccccc1Cl`, the GI50 was 11 µM and the TGI was 49.6 µM.
